According to patent US20110064694A1, “ANTI-HEPATITIS C ACTIVITY OF MESO-TETRAKIS-PORPHYRIN ANALOGUES” (YALE UNIVERSITY, priority 2009, published 2011):
Like-named read-outs stand apart in the source and are kept apart here.

Key:
HBV = assay: Anti-HBV activity in 2.2.15 cells by Southern DNA hybridization; format: cell-based; conditions: read-out: Antiviral Activity EC50 HBV
Procedure: (§1) Determination of antiviral activities. Ff-luciferase reporter activity was used to monitor the replication of HCV replicons in Huhluc/neo-ET cells free from G418. Replicon cells were seeded at the density of 5×10^3 cells per well in 96-well plates. The following day, replicon cells were incubated in duplicates with DMSO or serially diluted tetraphenylporphyrin (TPP) analogues at 37″C. 72 hrs after co-incubation, cells were lysed with ice-cold passive lysis reagent after PBS wash, and the luciferase activity was measured with the luciferase assay kit (Promega) and Tecan FARCyte luminometer (GE Healthcare) following the manufacturers' descriptions. The relative light units (RLU) were adjusted as percentage readings of the compound-free controls and the 50% effective concentration (EC50) was determined from dose-effect curve by nonlinear regression analysis using Origin 6.1 (OriginLab Software). TPP analogues were also screened in vitro against HIV-I IIIB and HBV as previously described (26,41). Briefly 1×10^3 MT-2 cells per well were exposed in triplets to 0.1TC1D50/cell (50% of the tissue culture infectious dose) of HIV-1 IIIB and cultured in the presence of compounds. The EC50 values were estimated by MTT-based colorimetric quantitation of viral CPE after 5 days. Anti-HBV activities were evaluated in 2.2.15 cells by means of Southern DNA hybridization.

CEM cells = assay: Cytotoxicity in CEM cells; conditions: read-out: Cytotoxicity CC50 CEM
cytochrome c = cytochrome c (Equus caballus, UniProt P00004); conditions: read-out: Kd, binding to cyt c; cited from earlier work
[1] = test system: HCV genotype 1b (Con1) replicon cells Huh-luc/neo-ET
Procedure: Reversibility of the action of compound 6 against genotype 1b HCV replicon. Huh-luc/neo-ET cells were seeded at a density of 2×10^5 cells per well in a 6-well plate, and were incubated for 12 days with DMSO control or up to 1 μM of compound 6 in the absence of G418. Cells were split every three days when media and compounds were replenished, and samples were collected for RNA quantification. compound 6 was removed on Day 12 when cells were split and cultured in the presence of 250 μg/ml of G418. Replicon cells were continuously monitored for another 12 days, during which cells were split and sampled whenever reaching confluence. Cell viability was measured by CellTiter-Glo luminescent cell viability assay following manufacturer's procedures (Promega), and the HCV RNA was quantitated by qRT-PCR and normalized as described above.
The goal of anti-HCV treatment is to completely eliminate the virus from infected cells. In order to assess the reversibility of the antiviral action and the possibility of replicon clearance, we incubated Huhluc/neo-ET cells with increasing concentrations of compound 6 for […] free from G418 (FIG. 4). On Day 12 compound 6 was removed and 250 μgml G418 was reintroduced while the replicon RNA level and cell growth were monitored for another 12 days.

[2] = test system: HCV genotype 2a (JFH-1) replicon; assay: HCV RNA quantification by qRT-PCR in YSGR-JFH cells; format: cell-based, Hepatitis C virus
Procedure: Cells. HCV genotype 1b (Con 1 isolate) subgenomic replicon cell line with luciferase reporter (Huh-luc/neo-ET) was kindly provided by Ralf Bartenschlager from the University of Heidelberg (37). Huh-luc/neo-ET cells were cultured in Dulbecco's modified Eagle medium (DMEM , supplemented with 10% fetal bovine serum (FBS), 1 mM nonessential amino acids, and 250 μg/ml of G418 (Invitrogen). Genotype 2a (JFH-I isolate) subgenomic replicon cells YSGR-JFH were cultured in DMEM containing 10 To fetal calf serum, 1 mM nonessential amino acids and 400 μg/ml G418 (31). An additional genotype 1b (Conl) replicon cell line (4291BBix) was cultured in similar media but with 3 μg/ml blasticidin (22).
(§2) Activity of compound 6 against genotype 2a (JFH-I) replicons. In parallel to Huh-luc/neo-ET cells, 1×10^5 YSGR-JFH cells per well were incubated with DMSO control, compound 6, or recombinant human IFNα-2a (Pestka Biomedical Laboratories) in 6-well plates. Cells were harvested after 72 hrs of co-incubation and HCV RNAs were quantitated by qRT-PCR and normalized as described above.

[3] = test system: HCV genotype 1b (Con1) replicon RNA; assay: HCV RNA quantification by qRT-PCR in Huh-luc/neo-ET cells; format: cell-based, Hepatitis C virus; conditions: for EC50: qRT-PCR, estimated
Procedure: Quantification of HCV RNA and NS5A protein. Huhluc/neo-ET cells were seeded at the density of 1×10^5 cells per well in 6-well plate and treated with either DMSO control or up to 250 nM of compound 6. Cells were harvested after 24, 48, or 72 hrs of incubation and subjected to luciferase activity assay, RNA quantification and immunoblotting. Results were averaged from three independent repeats. Luciferase activity assay was done in triplets per experiment as aforementioned and RLU reading was normalized against the total protein level per sample determined from Bradford assay. Total RNA was isolated using RNeasy Mini Kit (QIAGEN) and the RNA concentrations were measured by spectrophotometry (GE Healthcare) followed by dilution into 50 ng/μL. Replicon RNA was quantitated in triplicates by amplifying the HCV 5′UTR using one-step real-time reverse transcriptase polymerase chain reactions (qRT-PCR). Each 20 μL replicate contained 100 ng of total RNA, 100 nM probe (6FAM-5′-[…]-3′-MGBNFQ, Applied Biosystems) and 200 nM forward and reverse primers (5′-[…]-3′, and 5′-[…]-3′ respectively, Yale University W.M. Keck Facility) (21), together with iScript reverse transcriptase and reaction mix for one-step RT-PCR (Bio-Rad Laboratories). Reactions were run in the iCycler iQ RealTime thermocycler detection system (Bio-Rad Laboratories) as follows: 10 min at 50° C., 5 min at 95° C., followed by 42 cycles at 95° C. for 15 sec and 60° C. for […]. Results were normalized against the β-actin mRNA levels in each sample (20).
as §2

HIV-1 IIIB = assay: Anti-HIV activity in MT-2 cells, MTT quantitation of viral CPE; format: cell-based; conditions: MT-2 cells, 5 days; read-out: Antiviral Activity EC50 HIV-1 IIIB
Procedure: as §1

cytochrome c, sequence (P00004 2-105 limits assumed): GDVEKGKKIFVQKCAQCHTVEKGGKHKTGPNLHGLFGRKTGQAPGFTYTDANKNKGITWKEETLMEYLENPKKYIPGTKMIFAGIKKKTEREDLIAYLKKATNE

O=C(O)c1cc(C(=O)O)cc(-c2ccc(-c3c4nc(c(-c5ccc(-c6cc(C(=O)O)cc(C(=O)O)c6)cc5)c5ccc([nH]5)c(-c5ccc(-c6cc(C(=O)O)cc(C(=O)O)c6)cc5)c5nc(c(-c6ccc(-c7cc(C(=O)O)cc(C(=O)O)c7)cc6)c6ccc3[nH]6)C=C5)C=C4)cc2)c1 [Compound 6, Meso-teftakis-(3,5-dicarboxy-4,4′-biphenyl)porphyrin]
EC50 (HBV): > 20 µM | CC50 (CEM cells): > 50 µM | Kd (cytochrome c): 1.5 ± 0.17 µM | cells surviving under G418 ([1]; 50 nM for 12 days, 6 days after the removal of inhibitor): 8.5% | replicon-positive cells rebounded ([1]; 50 nM for 12 days, 12 days after removal of inhibitor): 13.1% | cells surviving under G418 ([1]; 100 nM for 12 days, end of the experiment): 0.007% | cell viability after G418 reintroduction ([1]; 300 nM and 1 μM for 12 days, 9 days after coincubation with G418): no longer viable | reduction in the HCV RNA levels ([1]; 300 nM and above, after 12 days of exposure): approximately 4.5 1o916 | cells surviving under G418 ([1]; 300 nM for 9 days, 15-day rebound period with G418): 0.4% | replicon clearance ([1]; 1 μM for 9 days, 15-day rebound period with G418): achieved complete “cure” | toxicity in cells during the 12-day treatment ([1]; up to 1 μM, 12 days): did not cause significant toxicity | EC50 in YSGR-JFH (genotype 2a) relative to EC50 in Huh-luc/neo-ET (genotype 1b) ([2]; 72 hrs): over 57 fold | less effective against genotype 2a (JFH-1) than against genotype 1b (Conl) replicons ([2]; anti-HCV EC50): 57 times | EC50 ([2]; genotype 2a, 72 hrs, HCV RNA by qRT-PCR, read-out: antiviral EC50 against YSGR-JFH replicon cells): 1.38 ± 0.148 µM | EC50 ([3]; 24 hrs, read-out: 24-hr EC50, HCV RNA level): 0.0678 µM | EC50 ([3]; 48 hrs, read-out: 48-hr EC50, HCV RNA level): 0.0362 µM | improvement of 72-hr EC50 compared with 24-hr incubation, HCV RNA ([3]; 72 hr vs 24 hr): over 2 fold | EC50 (HIV-1 IIIB): 3.67 ± 1.22 µM
